Assay [1] deals with T1, LXRα (pGAL-hLXRα-LBD) (Homo sapiens, UniProt Q13133).
T1 construct: 수용체 발현 벡터(pGAL-hLXRα-LBD); expressed in transfected cells; host or cells: HEK293 or NIH3T3 cells
T1 sequence (Q13133 209-447 limits assumed): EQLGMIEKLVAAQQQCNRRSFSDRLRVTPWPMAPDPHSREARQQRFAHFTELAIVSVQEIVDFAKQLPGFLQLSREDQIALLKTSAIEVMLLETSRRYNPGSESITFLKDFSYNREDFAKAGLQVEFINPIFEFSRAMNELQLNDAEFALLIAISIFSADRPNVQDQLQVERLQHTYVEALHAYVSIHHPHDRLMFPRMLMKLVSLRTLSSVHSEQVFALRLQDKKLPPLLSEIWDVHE
Description: Transient transfection assay (luciferase reporter) in HEK293 / NIH3T3 cells. In kind it is cell-based. Conditions: increasing amounts of compound, without RXRα expression plasmid (Fig. 1). On the technique in general: Reporter assays use an easily measured gene product as a stand-in for the process of interest.

Assay [2] addresses T2, LXRα ligand-binding domain [LXRα 리간드-결합 도메인] (GST-LXRα-LBD) (Homo sapiens, UniProt Q13133).
T2 construct: LXRα 리간드-결합 도메인을 글루타치온 S-트랜스퍼라제(GST)의 C-말단에 융합시키고; made in house; host or cells: E. coli
T2 sequence (Q13133 209-447 limits assumed): T1 sequence (Q13133 209-447 limits assumed)
Description: Fluorescence polarization assay (rhodamine-labelled LXXLL peptide recruitment to GST-LXRα-LBD). Conditions: 10 nM rhodamine-labelled peptide, 200 nM GST-LXRα-LBD, overnight (Fig. 2). The class given is biochemical. A general note: Polarisation of emitted light reports the rotation of a fluorescent probe.

Assay [3] is described as follows: Plasma lipid change experiment in mice. The class given is in vivo, C57BL/6J mouse. The settings on record: 14 days, C57BL/6J mice (n=6), blood 6 h after last dose.
The subject of assay [4] is CYP7A. Description: CYP7A assay in liver of orally dosed mice. The class given is in vivo, C57BL/6J mouse. Conditions: C57BL/6J mice (n=6), single oral administration, liver taken after 8 h; dose not given.

As to `CC(C)CC[C@@H](O)[C@@H](C)[C@H]1CC[C@H]2[C@@H]3CC=C4C[C@@H](O)CC[C@]4(C)[C@H]3CC[C@]12C` [22(R)-하이드록시콜레스테롤, reference compound], the “luciferase activity (LXRα-mediated transcription)” value (shortened to “luciferase activity”) in assay [1] is “용량 의존적으로 루시퍼라제 활성이 증가하였다”. The “fluorescence polarization activity (coactivator peptide recruitment)” value in assay [2] is listed as “형광의 증가를 나타내었다”.
Regarding `Cc1c(/C=C(\C#N)S(=O)(=O)c2ccccc2)cc(C(C)C)n1-c1ccccc1C(F)(F)F` [#44, (E)-2-페닐설포닐-3-[1-(2-트리플루오로메틸페닐)-2-메틸-5-이소프로필피롤-3-일]아크릴로니트릴], the “luciferase activity” value in assay [1] was “용량 의존적으로 루시퍼라제 활성이 증가하였다”.
Still for that read-out and setting: in the case of `COC(=O)c1cccc(S(=O)(=O)/C(C#N)=C/c2cc(C(C)C)n(-c3ccccc3C(F)(F)F)c2C)c1` [#182, (E)-2-(3-메톡시카보닐페닐)설포닐-3-[1-(2-트리플루오로메틸페닐)-2-메틸-5-이소프로필피롤-3-일]아크릴로니트릴] it was “용량 의존적으로 루시퍼라제 활성이 증가하였다”.
Regarding `CC(C)c1cc(/C=C(\C#N)S(=O)(=O)c2ccccc2)cn1-c1ccccc1C(F)(F)F` [#189, (E)-2-페닐설포닐-3-[1-(2-트리플루오로메틸페닐)-5-이소프로필피롤-3-일]아크릴로니트릴], the “increase in plasma HDL cholesterol” value in assay [3] (30 mg/kg oral) is 18%; in assay [3] (100 mg/kg oral) it was 41%. For the same compound, the “increase in CYP7A activity in liver” value in assay [4] was 91%.
Consider `O=S(=O)(c1ccccc1)N(CC(F)(F)F)c1ccc(C(O)(C(F)(F)F)C(F)(F)F)cc1` [T0901317, reference compound], for which the “luciferase activity” value in assay [1] is recorded as “용량 의존적으로 루시퍼라제 활성이 증가하였다”. In addition, the “fluorescence polarization activity (coactivator peptide recruitment)” value in assay [2] was “가장 높은 활성을 나타내었고”.

The values above are taken from KR20050073110A, “간 x 수용체의 항진제” (주식회사 엘지생명과학, priority 2004, dated 2005).
